Here are results for 52 compounds from patent US9371319B2, “Pyrrolopyridineamino derivatives as MPS1 inhibitors” (priority 2011, dated 2016).

The assay concerns the target T1, full length MPS1 (Homo sapiens, UniProt P33981).
T1 sequence (P33981 1-857): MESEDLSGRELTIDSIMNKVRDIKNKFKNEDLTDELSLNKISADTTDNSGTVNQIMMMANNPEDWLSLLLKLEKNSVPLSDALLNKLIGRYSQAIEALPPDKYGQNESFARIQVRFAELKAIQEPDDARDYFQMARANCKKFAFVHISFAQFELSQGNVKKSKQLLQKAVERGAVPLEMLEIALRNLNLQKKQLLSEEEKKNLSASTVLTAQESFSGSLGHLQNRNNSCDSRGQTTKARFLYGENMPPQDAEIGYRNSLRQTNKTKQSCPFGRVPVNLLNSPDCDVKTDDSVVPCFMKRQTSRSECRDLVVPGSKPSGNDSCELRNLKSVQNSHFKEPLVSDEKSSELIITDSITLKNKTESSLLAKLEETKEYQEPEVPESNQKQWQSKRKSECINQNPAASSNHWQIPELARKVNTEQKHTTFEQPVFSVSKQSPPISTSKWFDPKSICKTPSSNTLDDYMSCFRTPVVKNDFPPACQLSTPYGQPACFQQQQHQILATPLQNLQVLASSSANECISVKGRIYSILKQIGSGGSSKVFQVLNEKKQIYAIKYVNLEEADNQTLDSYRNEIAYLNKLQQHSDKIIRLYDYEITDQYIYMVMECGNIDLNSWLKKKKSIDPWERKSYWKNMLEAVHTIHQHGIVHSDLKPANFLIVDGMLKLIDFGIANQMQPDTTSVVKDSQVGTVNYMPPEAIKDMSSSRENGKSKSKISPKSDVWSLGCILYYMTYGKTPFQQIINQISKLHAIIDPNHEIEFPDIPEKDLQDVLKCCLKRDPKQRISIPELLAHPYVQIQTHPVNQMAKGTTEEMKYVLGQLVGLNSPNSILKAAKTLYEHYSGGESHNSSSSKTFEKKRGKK
The experiment in a line: biochemical. The procedure:
Measurement of Inhibition of MPS1 Kinase
(5 μM), ATP (10 μM), either DMSO (1% v/v) or the test compound (in the range 0.25 nM-100 μM in 1% DMSO) and assay buffer (50 mM HEPES (pH 7.0), 0.02% NaN3, 0.01% BSA, 0.1 mM Orthovandate, […], 1 μM DTT, Roche protease inhibitor). The reaction was carried out for 60 min at room temperature and stopped by the addition of buffer (10 μl) containing 20 mM EDTA, 0.05% (v/v) Brij-35, in 0.1M HEPES-buffered saline (Free acid, Sigma, UK). The plate was read on a Caliper EZ reader II (Caliper Life Sciences).
The % inhibition of the compounds is calculated relative to the means of selected control wells. […] The % inhibitions at each concentration are then fitted to a 4 parameter logistic fit: y=(a+((b−a)/(1+((c/x^d)))) where a=asym min, b=asym max, c=IC50 and d=hill coefficient
In the case of `CN(C)C(=O)c1ccc(Nc2cc3c(cn2)cc(-c2cnn(C)c2)n3C(=O)OC(C)(C)C)c(OC(F)(F)F)c1` [Example 3], the concentration for half-maximal inhibition (IC50) – broadly, the concentration needed to halve the response being measured – was determined as 6 nM.

`CC(=O)c1ccccc1Nc1cc2c(cn1)cc(-c1cnn(C)c1)n2C(=O)OC(C)(C)C` [Example 9] showed an IC50 of 77 nM.

In turn, `COc1cc(C(=O)N2CCOCC2)ccc1Nc1cc2c(cn1)cc(-c1cnn(C)c1)n2C(=O)OC(C)(C)C` [Example 10] displayed a 50% inhibitory concentration (IC50) of 5 nM.

With `COCCNC(=O)c1ccc(Nc2cc3c(cn2)cc(-c2cnn(C)c2)n3C(=O)OC(C)(C)C)c(OC)c1` [Example 11], the IC50 came out at 9 nM.

Regarding `COc1cc(C(=O)N2CC(OC)C2)ccc1Nc1cc2c(cn1)cc(-c1cnn(C)c1)n2C(=O)OC(C)(C)C` [Example 12], the IC50 was 7 nM.

`CN(C)C(=O)c1cc(Cl)c(Nc2cc3c(cn2)cc(-c2cnn(C)c2)n3C(=O)OC(C)(C)C)c(Cl)c1` [Example 13] registered an IC50 of 20 nM.

For the compound `Cn1cc(-c2cc3cnc(Nc4ccc(-c5nncn5C)cc4Cl)cc3n2C(=O)OC(C)(C)C)cn1` [Example 18], the IC50 is 1 nM.

With `Cc1c(-c2ccc(Nc3cc4c(cn3)cc(-c3cnn(C)c3)n4C(=O)OC(C)(C)C)c(Cl)c2)cnn1C` [Example 20], the concentration for half-maximal inhibition (IC50) was determined as 7 nM.

Regarding `Cc1nn(C)cc1-c1ccc(Nc2cc3c(cn2)cc(-c2cnn(C)c2)n3C(=O)OC(C)(C)C)c(Cl)c1` [Example 21], the IC50 turned out to be 7 nM.

As for `Cn1cc(-c2cc3cnc(Nc4ccc(-c5nccn5C)cc4Cl)cc3n2C(=O)OC(C)(C)C)cn1` [Example 22], the half-inhibitory concentration (IC50) stood at 3 nM.

For `Cc1oncc1-c1ccc(Nc2cc3c(cn2)cc(-c2cnn(C)c2)n3C(=O)OC(C)(C)C)c(Cl)c1` [Example 23], the IC50 is 11 nM.

As for `Cn1cc(-c2cc3cnc(Nc4ccc(-c5cncs5)cc4Cl)cc3n2C(=O)OC(C)(C)C)cn1` [Example 24], half-maximal inhibition (IC50) required 9 nM.

As for `COc1cc(CN2CCCC2)ccc1Nc1cc2c(cn1)cc(-c1cnn(C)c1)n2C(=O)OC(C)(C)C` [Example 33], the IC50 was 16 nM.

For the compound `COc1cc(CN(C)C(=O)OC(C)(C)C)ccc1Nc1cc2c(cn1)cc(-c1cnn(C)c1)n2C(=O)OC(C)(C)C` [Example 34], the half-maximal inhibitory concentration (IC50) is 111 nM.

The compound `COc1cc(CN(C)C)ccc1Nc1cc2c(cn1)cc(-c1cnn(C)c1)n2C(=O)OC(C)(C)C` [Example 35] displayed an IC50 of 8 nM.

Consider `Cn1cc(-c2cc3cnc(Nc4cccc(OCC#N)c4)cc3n2C(=O)OC(C)(C)C)cn1` [Example 36], for which the IC50 was 156 nM.

As to `COC1CN(C(=O)c2ccc(Nc3cc4c(cn3)cc(-c3cnn(C)c3)n4C(=O)OC(C)(C)C)c(Cl)c2)C1` [Example 37], the IC50 is 8 nM.

`CCN(C)C(=O)c1ccc(Nc2cc3c(cn2)cc(-c2cnn(C)c2)n3C(=O)OC(C)(C)C)c(Cl)c1` [Example 39] displayed an IC50 of 4 nM.

On to `Cn1cc(-c2cc3cnc(Nc4ccc(C(=O)N5CCCC5)cc4Cl)cc3n2C(=O)OC(C)(C)C)cn1` [Example 40], for which half-maximal inhibition (IC50) was put at 4 nM.

In turn, `CN1CCN(C(=O)c2ccc(Nc3cc4c(cn3)cc(-c3cnn(C)c3)n4C(=O)OC(C)(C)C)c(Cl)c2)CC1` [Example 41] returned an IC50 of 8 nM.

`Cn1cc(-c2cc3cnc(Nc4ccc(-c5ccnn5C)cc4Cl)cc3n2C(=O)OC(C)(C)C)cn1` [Example 44] gave an IC50 of 19 nM.

`Cc1nc(C)c(-c2ccc(Nc3cc4c(cn3)cc(-c3cnn(C)c3)n4C(=O)OC(C)(C)C)c(Cl)c2)s1` [Example 45] showed an IC50 of 52 nM.

Consider `COc1cc(-c2ccc(Nc3cc4c(cn3)cc(-c3cnn(C)c3)n4C(=O)OC(C)(C)C)c(Cl)c2)ccn1` [Example 46], for which the 50% inhibitory concentration (IC50) came out at 75 nM.

`Cc1ncc(-c2ccc(Nc3cc4c(cn3)cc(-c3cnn(C)c3)n4C(=O)OC(C)(C)C)c(Cl)c2)n1C` [Example 47] yielded an IC50 of 5 nM.

As to `COc1ccc(-c2ccc(Nc3cc4c(cn3)cc(-c3cnn(C)c3)n4C(=O)OC(C)(C)C)c(Cl)c2)cn1` [Example 48], half-maximal inhibition (IC50) required 16 nM.

In turn, `Cc1ccc(-c2ccc(Nc3cc4c(cn3)cc(-c3cnn(C)c3)n4C(=O)OC(C)(C)C)c(Cl)c2)cn1` [Example 49] displayed a concentration for half-maximal inhibition (IC50) of 9 nM.

`Cn1cc(-c2cc3cnc(Nc4ccc(C(=O)N5CC(F)(F)C5)cc4Cl)cc3n2C(=O)OC(C)(C)C)cn1` [Example 50] showed an IC50 of 6 nM.

With `Cn1cc(-c2cc3cnc(Nc4ccccc4C#N)cc3n2C(=O)OC(C)(C)C)cn1` [Example 54], half-maximal inhibition (IC50) was put at 32 nM.

`Cn1cc(-c2cc3cnc(Nc4ccc(S(C)(=O)=O)cc4Cl)cc3n2C(=O)OC(C)(C)C)cn1` [Example 55] returned a half-inhibitory concentration (IC50) of 24 nM.

Regarding `Cn1cc(-c2ccc(Cl)c(Nc3cc4c(cn3)cc(-c3cnn(C)c3)n4C(=O)OC(C)(C)C)c2)cn1` [Example 62], the half-inhibitory concentration (IC50) came to 537 nM.

In turn, `Cc1ncn(C)c1-c1ccc(Nc2cc3c(cn2)cc(-c2cnn(C)c2)n3C(=O)OC(C)(C)C)c(Cl)c1` [Example 63] gave a half-maximal inhibitory concentration (IC50) of 5 nM.

Compound `CN(C)C(=O)c1ccc(Nc2cc3c(cn2)cc(-c2cnn(C)c2)n3CC2CCCC2)c(Cl)c1` [Example 64, 3-Chloro-4-(1-(cyclopentylmethyl)-2-(1-methyl-1H-pyrazol-4-yl)-1H-pyrrolo[3,2-c]pyridin-6-ylamino)-N,N-dimethylbenzamide] had a half-inhibitory concentration (IC50) of 47 nM.

As for `CN(C)C(=O)c1ccc(Nc2cc3c(cn2)c(Cl)c(-c2cnn(C)c2)n3C(=O)OC(C)(C)C)c(Cl)c1` [Example 65], half-maximal inhibition (IC50) required 127 nM.

In the case of `CN(C)C(=O)c1ccc(Nc2cc3c(cn2)cc(-c2cnn(C)c2)n3CC2CC2)c(Cl)c1` [Example 66], the 50% inhibitory concentration (IC50) was 30 nM.

The compound `Cn1cc(-c2cc3cnc(Nc4ccccc4Cl)cc3n2CC2CCCCC2)cn1` [Example 67] had an IC50 of 4880 nM.

`COc1cc(-c2cnc(C)n2C)ccc1Nc1cc2c(cn1)cc(-c1cnn(C)c1)n2C(=O)OC(C)C` [Example 68]: it took 2 nM to reach half-maximal inhibition (IC50).

In turn, `CN(C)C(=O)c1ccc(Nc2cc3c(cn2)cc(-c2cnn(C)c2)n3Cc2ccc(F)cc2)c(Cl)c1` [Example 70] gave an IC50 of 38 nM.

In turn, `CN(C)C(=O)c1ccc(Nc2cc3c(cn2)cc(-c2cnn(C)c2)n3CC2CCCCC2)c(Cl)c1` [Example 71] had an IC50 of 67 nM.

For the compound `CN(C)C(=O)c1ccc(Nc2cc3c(cn2)cc(-c2cnn(C)c2)n3C(=O)OC2CCCC2)c(Cl)c1` [Example 72], half-maximal inhibition (IC50) required 3 nM.

Regarding `CN(C)C(=O)c1ccc(Nc2cc3c(cn2)cc(-c2cnn(C)c2)n3C2CCCC2)c(Cl)c1` [Example 73], the IC50 is 7 nM.

On to `CC(C)n1c(-c2cnn(C)c2)cc2cnc(Nc3ccc(C(=O)N(C)C)cc3Cl)cc21` [Example 74], for which half-maximal inhibition (IC50) required 50 nM.

Compound `Cn1cc(-c2ccc(Nc3cc4c(cn3)cc(-c3cnn(C)c3)n4C(=O)OC3CCCC3)c(Cl)c2)cn1` [Example 75] had an IC50 of 12 nM.

As for `CC(C)OC(=O)n1c(-c2cnn(C)c2)cc2cnc(Nc3ccc(-c4cnn(C)c4)cc3Cl)cc21` [Example 76], the IC50 came out at 17 nM.

The compound `CC(C)OC(=O)n1c(-c2cnn(C)c2)cc2cnc(Nc3ccc(C(=O)N(C)C)cc3Cl)cc21` [Example 77] yielded an IC50 of 6 nM.

`Cn1cc(-c2cc3cnc(Nc4ccc(-c5cncn5C)cc4Cl)cc3n2C(=O)OC2CCCC2)cn1` [Example 78] showed an IC50 of 11 nM.

In turn, `CC(C)OC(=O)n1c(-c2cnn(C)c2)cc2cnc(Nc3ccc(-c4cncn4C)cc3Cl)cc21` [Example 79] yielded an IC50 of 3 nM.

In turn, `Cn1cc(-c2cc3cnc(Nc4ccc(-c5cncn5C)cc4Cl)cc3n2C2CCCC2)cn1` [Example 80] displayed a half-maximal inhibitory concentration (IC50) of 3 nM.

In turn, `CN(C)C(=O)c1ccc(Nc2cc3c(cn2)cc(-c2cnn(C)c2)n3C(=O)OC2CCC2)c(Cl)c1` [Example 81] showed an IC50 of 3 nM.

As to `Cn1cc(-c2cc3cnc(Nc4ccc(-c5cncn5C)cc4Cl)cc3n2C(=O)OC2CCC2)cn1` [Example 82], the IC50 is 5 nM.

As to `Cc1ncc(-c2ccc(Nc3cc4c(cn3)cc(-c3cnn(C)c3)n4C(=O)OC(C)C)c(Cl)c2)n1C` [Example 83], half-maximal inhibition (IC50) required 2 nM.

For `Cc1ncc(-c2ccc(Nc3cc4c(cn3)cc(-c3cnn(C)c3)n4C(=O)OC3CCCC3)c(Cl)c2)n1C` [Example 84], it took 2 nM to reach half-maximal inhibition (IC50).

Consider `Cc1ncc(-c2ccc(Nc3cc4c(cn3)cc(-c3cnn(C)c3)n4C(=O)OC3CCC3)c(Cl)c2)n1C` [Example 85], for which it took 4 nM to reach half-maximal inhibition (IC50).
